In US10314826B2, “Methods of treatment of ischemia-induced angiogenesis and arteriogenesis” (UNIVERSITY OF MARYLAND, BALTIMORE, priority 2014, dated 2019):
Each block holds one compound with its values, some of them ahead of it.

Legend:
VEGF = experiment: Immunoblot of VEGF protein in ischemic tissue after hindlimb ischemia; type: in vivo, mouse
Description: (§1) All experiments and animal husbandry were performed with approval from the University of California, San Francisco and University of Maryland Institutional Animal Care and Use Committees. Wild-type (p53^+/+), p53-null (p53^−/−), and p53^−/+ heterozygoytes were maintained on a C57Bl/6 background. […]
(§2) TA tissue from ischemic and control limbs from were harvested and pulverized in liquid nitrogen. For whole cell lysates, pulverized tissue was incubated in a modified RIPA buffer (50 mM Tris-HCl, pH 7.4; 1% SDS; 1% NP-40; 0.25% sodium deoxycholate; 1 mM PMSF; 1 mM DTT; Complete Mini, EDTA-free protease inhibitor cocktail and PhosStop phosphatase inhibitor tablets (Roche Applied Science; Indianapolis, Ind.), strained, and sonicated 3 times for 10 seconds. Samples were centrifuged at 10,000 G for ten minutes at 4 C, and the supernatant preserved. Protein concentration was measured using a BCA Protein Assay Kit. A total of 20 μg of protein was resolved on a 4-12% Bis-Tris gradiant polyacrylamide gel (Invitrogen; Carlsbad, Calif.) under reduced conditions and transferred to a PVDF membrane (Amersham Biosciences; Pittsburgh, Pa.). […]

p53 [1] = experiment: Blood flow restoration after hindlimb ischemia by LDPI, p53-/- mice (specificity control); type: in vivo, mouse; conditions: 2 weeks after hindlimb ischemia
Description: (§3) All experiments and animal husbandry were performed with approval from the University of California, San Francisco and University of Maryland Institutional Animal Care and Use Committees. Wild-type (p53^+/+), p53-null (p53^−/−), and p53^−/+ heterozygoytes were maintained on a C57Bl/6 background. […] For pharmacological modulation of p53 in vivo, quinacrine or vehicle (sterile water) was administered intraperitoneally at 10 mg/kg/day, beginning 5 days prior to surgery, and continued daily post-operatively until the experimental endpoint; PFT-α or vehicle (10% DMSO) was administered intraperitoneally at 2 mg/kg/day every other day beginning two days prior to surgery and continued until the experimental end-point. […]
(§4) Restoration of blood flow after hindlimb ischemia was assessed by laser Doppler perfusion imaging (LDPI) of the hindlimb paws using a PeriScan PIM 3 System (Perimed AB; Stockholm, Sweden) as previously described. Three successive readings were averaged and expressed as an ischemic index (ischemic paw over contralateral paw). For mesenteric artery ligation, blood flow was measured in the HF or CTL artery as volume-flow with a nanoprobe secured around the artery (0.5 mm nanoprobe, Transonic Systems Inc., Ithaca, N.Y.) in anesthetized mice. Flow was averaged over ten minutes and expressed as an arterial index (HF artery over CTL artery).

HIF-1α = experiment: Immunoblot of HIF-1α protein in ischemic tissue after hindlimb ischemia; type: in vivo, mouse
Description: as §1, §2

p53 [2] = target: T1, p53 (Mus musculus, UniProt P02340); experiment: Capillary density in ischemic tibialis anterior muscle after hindlimb ischemia; type: in vivo; design: from tissue; host or cells: live C57Bl/6 p53+/+ mice (hindlimb muscle and arteries); conditions: p53+/+ mice, vs vehicle
T1 sequence (P02340 whole entry): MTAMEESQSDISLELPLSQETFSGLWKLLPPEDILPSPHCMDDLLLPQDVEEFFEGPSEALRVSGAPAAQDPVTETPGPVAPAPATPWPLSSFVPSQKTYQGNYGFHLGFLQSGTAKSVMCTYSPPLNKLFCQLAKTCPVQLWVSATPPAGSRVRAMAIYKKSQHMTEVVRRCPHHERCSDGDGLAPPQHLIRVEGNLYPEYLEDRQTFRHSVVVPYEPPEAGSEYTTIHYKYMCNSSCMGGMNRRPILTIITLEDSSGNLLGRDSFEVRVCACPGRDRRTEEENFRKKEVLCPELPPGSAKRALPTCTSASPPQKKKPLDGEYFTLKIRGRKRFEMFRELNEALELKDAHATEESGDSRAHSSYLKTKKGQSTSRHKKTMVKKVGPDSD

p53 [3] = target: T1, p53; experiment: Collateral artery development (arteriogenesis, gracilis artery index) after hindlimb ischemia; type: in vivo; design: from tissue; host or cells: live C57Bl/6 p53+/+ mice (hindlimb muscle and arteries); conditions: p53+/+ mice, vs vehicle
Description: All experiments and animal husbandry were performed with approval from the University of California, San Francisco and University of Maryland Institutional Animal Care and Use Committees. Wild-type (p53^+/+), p53-null (p53^−/−), and p53^−/+ heterozygoytes were maintained on a C57Bl/6 background. […] For pharmacological modulation of p53 in vivo, quinacrine or vehicle (sterile water) was administered intraperitoneally at 10 mg/kg/day, beginning 5 days prior to surgery, and continued daily post-operatively until the experimental endpoint; PFT-α or vehicle (10% DMSO) was administered intraperitoneally at 2 mg/kg/day every other day beginning two days prior to surgery and continued until the experimental end-point. Mesenteric artery ligation was performed on 8- to 12-week old male wild-type and p53^−/− mice as described previously with modifications. A laparotomy was performed and the small intestine exposed and suffused with warmed saline. […] The control artery (CTL) was considered a straight artery three arteries from the site of ligation. […]
Independent experiments with separate animal cohorts for capillary and larger artery analysis were performed. […] Vascular regions were quantified individually and normalized to the contralateral control muscle. […] Two 5 μm sections in two separate areas 0.5 mm apart were measured and the results averaged. […]

p53 [4] = target: T1, p53; experiment: Blood flow restoration after hindlimb ischemia by laser Doppler perfusion imaging (LDPI), p53+/+ mice; type: in vivo; design: from tissue; host or cells: live C57Bl/6 p53+/+ mice (hindlimb muscle and arteries); conditions: 2 weeks after hindlimb ischemia, vs vehicle
Description: as §3, §4

p53 [5] = target: T1, p53; experiment: Diabetic ischemia model of hindlimb ischemia; type: in vivo; design: relieving ischemia in a clinically relevant diabetic ischemia model of hindlimb ischemia; from tissue; host or cells: animal model of diabetic hindlimb ischemia (not described further); conditions: clinically relevant diabetic ischemia model of hindlimb ischemia
VSMC = conditions: report of Chavala et al [26]; cited from earlier work
endothelial cells [6] = conditions: report of Chavala et al [26]; cited from earlier work
p53 [7] = conditions: report of Chavala et al [26]; cited from earlier work
endothelial cells [8] = conditions: report of Chavala et al [26]; cited from earlier work; remark: listed apart in the source
aortic rings = experiment: Endothelial outgrowth aortic ring assay under hypoxic conditions; type: cell-based, mouse; conditions: 20 μM quinacrine, vs vehicle-treated controls
[9] = PFT-α-treated mice, 3 days after surgery
[10] = PFT-α 2 mg/kg/day every other day intraperitoneally
[11] = quinacrine-treated mice, 7 days after hindlimb ischemia
[12] = quinacrine 10 mg/kg/day intraperitoneally

Structure (SMILES): Cc1ccc(C(=O)Cn2c3c(sc2=N)CCCC3)cc1 [PFT-α, pifithrin-α]
VEGF protein levels (VEGF; [9]): increase
blood flow restoration after ischemia in p53-/- mice (LDPI) (p53 [1]; PFT-α): had no effect on blood flow restoration
HIF-1α protein levels (HIF-1α; [9]): increase
capillary growth (capillary counts) (p53 [2]; [10]): No difference in capillary growth was detected
collateral vessel formation (gracilis artery index) (p53 [3]; PFT-α 2 mg/kg/day every other day intraperitoneally, 2 weeks after hindlimb ischemia): collateral vessel formation increased
blood flow restoration after ischemia (LDPI) (p53 [4]; [10]): enhanced blood flow restoration
arteriogenesis and relief of ischemia (p53 [5]): highly effective at increasing arteriogenesis and relieving ischemia

Structure (SMILES): COc1ccc(C2=N[C@@H](c3ccc(Cl)cc3)[C@@H](c3ccc(Cl)cc3)N2C(=O)N2CCNC(=O)C2)c(OC(C)C)c1 [Nutlin-3]
proliferation of VSMC (VSMC): inhibited proliferation
proliferation of endothelial cells (endothelial cells [6]): inhibited proliferation
pathologic retinal angiogenesis (p53 [7]): inhibit pathologic retinal angiogenesis
apoptosis in endothelial cells (endothelial cells [8]): induced apoptosis

capillary density (p53 [2]; [12]): did not affect capillary density
collateral development (larger vessel growth) (p53 [3]; quinacrine 10 mg/kg/day intraperitoneally, hindlimb ischemia): did impair collateral development
Structure (SMILES): CCN(CC)CCCC(C)Nc1c2ccc(Cl)cc2nc2ccc(OC)cc12 (stereo not drawn) [quinacrine]
VEGF protein levels (VEGF; [11]): suppressed
blood flow after ischemia in p53-/- mice (LDPI) (p53 [1]; quinacrine): had no effect on blood flow
HIF-1α protein levels (HIF-1α; [11]): suppressed
endothelial outgrowth from aortic rings (aortic rings): significantly inhibited endothelial outgrowth
blood flow after ischemia (LDPI) (p53 [4]; [12]): significantly attenuated the improvement in blood flow
